From ChEMBL document CHEMBL6078658, “Use of imidazo[1,5-a]quinoline scaffold as the pharmacophore in the design of bivalent ligands of central benzodiazepine receptors” (Bioorg Med Chem, 2025)

Columns and labels:
[1] = Displacement of [3H]flumazenil from CBR at low affinity site extracted from cerebral cortex of CD-1 albino mouse incubated for 90 mins by liquid scintillation counter analysis; format: tissue-based
[2] = Displacement of [3H]flumazenil from CBR at high affinity site extracted from cerebral cortex of CD-1 albino mouse incubated for 90 mins by liquid scintillation counter analysis; format: tissue-based
[3] = target: T1, GABA-A receptor; alpha-1/beta-3/gamma-2 (Homo sapiens, UniProt P14867+P18507+P28472); experiment: Displacement of [3H]flumazenil from human recombinant alpha1-beta3-gamma2 GABAA receptors expressed in mouse LTK- cells incubated for 1 hr by liquid scintillation counter analysis; format: cell-based
T1 sequence (P14867 whole entry): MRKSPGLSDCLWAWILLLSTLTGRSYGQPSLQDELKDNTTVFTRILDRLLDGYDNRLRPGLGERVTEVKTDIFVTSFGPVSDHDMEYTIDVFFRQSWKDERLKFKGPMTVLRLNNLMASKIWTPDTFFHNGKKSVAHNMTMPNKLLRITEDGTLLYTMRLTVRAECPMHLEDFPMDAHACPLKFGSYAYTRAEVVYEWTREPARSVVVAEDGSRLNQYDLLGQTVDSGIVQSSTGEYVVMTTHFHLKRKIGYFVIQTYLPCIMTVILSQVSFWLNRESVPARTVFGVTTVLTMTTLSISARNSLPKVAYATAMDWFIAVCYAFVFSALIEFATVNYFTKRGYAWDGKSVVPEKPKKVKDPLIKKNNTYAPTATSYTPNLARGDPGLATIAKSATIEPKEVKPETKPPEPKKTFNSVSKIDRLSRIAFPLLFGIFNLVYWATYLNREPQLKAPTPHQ
T1 sequence (P18507 whole entry): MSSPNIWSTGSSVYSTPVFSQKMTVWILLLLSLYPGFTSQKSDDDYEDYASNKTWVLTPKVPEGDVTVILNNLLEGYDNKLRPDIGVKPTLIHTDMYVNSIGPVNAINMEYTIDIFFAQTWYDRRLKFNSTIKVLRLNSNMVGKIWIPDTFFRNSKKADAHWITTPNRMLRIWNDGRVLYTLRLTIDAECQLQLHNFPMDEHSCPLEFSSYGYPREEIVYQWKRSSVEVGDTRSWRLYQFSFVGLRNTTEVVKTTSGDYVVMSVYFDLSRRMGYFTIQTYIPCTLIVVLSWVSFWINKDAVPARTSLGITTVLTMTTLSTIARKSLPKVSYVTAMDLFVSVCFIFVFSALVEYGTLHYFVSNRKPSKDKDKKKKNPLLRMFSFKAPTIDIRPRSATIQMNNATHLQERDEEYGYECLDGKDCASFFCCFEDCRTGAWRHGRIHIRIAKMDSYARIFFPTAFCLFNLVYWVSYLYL
T1 sequence (P28472 whole entry): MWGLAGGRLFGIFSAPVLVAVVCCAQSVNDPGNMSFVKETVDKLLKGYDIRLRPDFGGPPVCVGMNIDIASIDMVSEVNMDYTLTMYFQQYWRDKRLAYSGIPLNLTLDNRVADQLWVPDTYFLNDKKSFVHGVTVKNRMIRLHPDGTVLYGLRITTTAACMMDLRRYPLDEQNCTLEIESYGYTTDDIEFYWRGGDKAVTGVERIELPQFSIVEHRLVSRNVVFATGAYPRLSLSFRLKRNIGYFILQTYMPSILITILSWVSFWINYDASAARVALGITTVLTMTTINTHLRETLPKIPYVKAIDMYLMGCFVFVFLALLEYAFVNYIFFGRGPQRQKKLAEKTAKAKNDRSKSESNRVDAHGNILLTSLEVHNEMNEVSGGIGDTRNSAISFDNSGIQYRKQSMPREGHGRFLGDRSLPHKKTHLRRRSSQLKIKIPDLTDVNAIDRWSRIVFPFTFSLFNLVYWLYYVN

[4] = target: T2, GABA-A receptor; alpha-2/beta-3/gamma-2 (Homo sapiens, UniProt P18507+P28472+P47869); experiment: Displacement of [3H]flumazenil from human recombinant alpha2-beta3-gamma2 GABAA receptors expressed in mouse LTK- cells incubated for 1 hr by liquid scintillation counter analysis; format: cell-based
T2 sequence (P18507 whole entry): T1 sequence (P18507 whole entry)
T2 sequence (P28472 whole entry): T1 sequence (P28472 whole entry)
T2 sequence (P47869 whole entry): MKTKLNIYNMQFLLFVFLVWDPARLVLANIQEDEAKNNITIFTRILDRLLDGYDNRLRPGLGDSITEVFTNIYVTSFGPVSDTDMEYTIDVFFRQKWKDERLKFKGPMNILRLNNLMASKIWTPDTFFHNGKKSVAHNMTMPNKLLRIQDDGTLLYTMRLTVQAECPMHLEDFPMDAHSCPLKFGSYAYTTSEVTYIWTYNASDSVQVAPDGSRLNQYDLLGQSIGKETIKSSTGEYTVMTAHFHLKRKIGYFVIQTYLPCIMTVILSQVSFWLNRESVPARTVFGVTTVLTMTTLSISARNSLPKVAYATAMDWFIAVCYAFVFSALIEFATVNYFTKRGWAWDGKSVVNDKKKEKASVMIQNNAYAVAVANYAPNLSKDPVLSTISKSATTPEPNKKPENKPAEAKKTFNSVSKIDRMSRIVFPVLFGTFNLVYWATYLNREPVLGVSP

Mus musculus [5] = experiment: Anticonvulsant activity in PTZ-treated CD-1 mouse assessed as time taken for convulsion latency at 20 mg/kg pretreated for 30 mins followed by PTZ treatment measured for 30 mins post-PTZ dose (reference value: 19.3 +/- 4.1 min); format: functional; conditions: 0.5 h
Mus musculus [6] = experiment: Anticonvulsant activity in PTZ-treated CD-1 mouse assessed as time taken for death latency at 20 mg/kg pretreated for 30 mins followed by PTZ treatment measured for 30 mins post-PTZ dose (reference value: 28.4 +/- 4.8 min); format: functional; conditions: 0.5 h
Mus musculus [7] = experiment: Anxiolytic activity in CD-1 mouse assessed as time in light at 10 mg/kg treated for 30 mins by light/dark box test (reference value: 112.1 +/- 10.9 sec); format: functional; conditions: 0.5 h
Mus musculus [8] = experiment: Anxiolytic activity in CD-1 mouse assessed as time in light at 20 mg/kg treated for 30 mins by light/dark box test (reference value: 112.1 +/- 10.9 sec); format: functional; conditions: 0.5 h
Mus musculus [9] = experiment: Myorelaxant effect in CD-1 mouse assessed as time taken for myorelaxation at 20 mg/kg, po measured immediately post-dose by rota rod test (reference value: 5.0 +/- 0.4 min); format: functional
Mus musculus [10] = experiment: Myorelaxant effect in CD-1 mouse assessed as time taken for myorelaxation at 20 mg/kg, po measured after 15 mins post-dose by rota rod test (reference value: 3.1 +/- 0.4 min); format: functional; conditions: 0.25 h
Mus musculus [11] = experiment: Myorelaxant effect in CD-1 mouse assessed as time taken for myorelaxation at 20 mg/kg, po measured after 30 mins post-dose by rota rod test (reference value: 1.6 +/- 0.0 min); format: functional; conditions: 0.5 h
Mus musculus [12] = experiment: Myorelaxant effect in CD-1 mouse assessed as time taken for myorelaxation at 20 mg/kg, po measured after 45 mins post-dose by rota rod test (reference value: 1.0 +/- 0.2 min); format: functional; conditions: 0.75 h
Mus musculus [13] = experiment: Myorelaxant effect in CD-1 mouse assessed as time taken for myorelaxation at 20 mg/kg, po measured after 60 mins post-dose by rota rod test (reference value: 0.2 +/- 0.3 min); format: functional; conditions: 1 h
Mus musculus [14] = experiment: Improvement in learning and memory in CD-1 mouse assessed as time taken for training session at 20 mg/kg, po by passive avoidance test (reference value: 15.6 +/- 3.2 sec); format: functional
Mus musculus [15] = experiment: Improvement in learning and memory in CD-1 mouse assessed as time taken for retention session at 20 mg/kg, po by passive avoidance test (reference value: 15.6 +/- 3.2 sec); format: functional
Mus musculus [16] = experiment: Improvement in learning and memory in CD-1 mouse assessed as difference in time taken for training and retention session at 20 mg/kg, po by passive avoidance test (reference value: 76.8 sec); format: functional
[17] = Displacement of [3H]flumazenil from CBR extracted from cerebral cortex of CD-1 albino mouse incubated for 90 mins by liquid scintillation counter analysis; format: cell membranes, Membranes
Mus musculus [18] = experiment: Anxiolytic activity in CD-1 mouse assessed as time in light at 1 mg/kg treated for 30 mins by light/dark box test (reference value: 112.1 +/- 10.9 sec); format: functional; conditions: 0.5 h
Mus musculus [19] = experiment: Improvement in learning and memory in CD-1 mouse assessed as time taken for training session at 1 mg/kg, po by passive avoidance test (reference value: 15.6 +/- 3.2 sec); format: functional
Mus musculus [20] = experiment: Improvement in learning and memory in CD-1 mouse assessed as time taken for retention session at 1 mg/kg, po by passive avoidance test (reference value: 15.6 +/- 3.2 sec); format: functional
Mus musculus [21] = experiment: Improvement in learning and memory in CD-1 mouse assessed as difference in time taken for training and retention session at 1 mg/kg, po by passive avoidance test (reference value: 76.8 sec); format: functional

For `CCOC(=O)c1ncn2c1c(C)c(C(=O)NCCCCCCCNC(=O)OC(C)(C)C)c1ccccc12`, the Ki [1] was 6.4 nM, the Ki [2] was 61 nM and the Ki [3] was 31 nM. The Ki [4] was 33 nM.
`CCOC(=O)c1ncn2c1c(C)c(C(=O)NCCCCCCNC(=O)OC(C)(C)C)c1ccccc12` gave a Ki [1] of 35 nM, a Ki [2] of 65 nM and a Ki [3] of 10 nM. It also gave a Ki [4] of 14 nM, a Time (Mus musculus [5]) of 24.2 min and a Time (Mus musculus [6]) of 43.3 min. For the same compound, the Time (Mus musculus [7]) was 109.7 s, the Time (Mus musculus [8]) was 144.7 s and the Time (Mus musculus [9]) was 5.1 min. The Time (Mus musculus [10]) was 3.3 min, the Time (Mus musculus [11]) was 1.8 min and the Time (Mus musculus [12]) was 0.8 min. The Time (Mus musculus [13]) was 0.2 min, the Time (Mus musculus [14]) was 18.1 s and the Time (Mus musculus [15]) was 95.5 s. For the same compound, the Time (Mus musculus [16]) was 77.4 s.
Work on `CCOC(=O)c1ncn2c1c(C)c(C(=O)NCCCCCCCCNC(=O)c1c(C)c3c(C(=O)OCC)ncn3c3ccccc13)c1ccccc12` yielded a Ki [1] of 52 nM, a Ki [2] of 0.05 nM and a Ki [3] of 64 nM. For the same compound, the Ki [4] was 56 nM, the Time (Mus musculus [5]) was 20.7 min and the Time (Mus musculus [6]) was 41.8 min. For the same compound, the Time (Mus musculus [7]) was 96.7 s, the Time (Mus musculus [8]) was 173.4 s and the Time (Mus musculus [9]) was 4.5 min. The Time (Mus musculus [10]) was 3 min, the Time (Mus musculus [11]) was 1.4 min and the Time (Mus musculus [12]) was 0.7 min. The Time (Mus musculus [13]) was 0.2 min, the Time (Mus musculus [14]) was 14.8 s and the Time (Mus musculus [15]) was 91.8 s. The Time (Mus musculus [16]) was 77 s.
With `CCOC(=O)c1ncn2c1c(C)c(C(=O)NCCCCCCNC(=O)c1c(C)c3c(C(=O)OCC)ncn3c3ccccc13)c1ccccc12` the Ki [1] was 60 nM, the Ki [2] was 0.022 nM and the Ki [3] was 74 nM. The Ki [4] was 45 nM, the Time (Mus musculus [5]) was 22.8 min and the Time (Mus musculus [6]) was 40.5 min. For the same compound, the Time (Mus musculus [7]) was 114.3 s, the Time (Mus musculus [8]) was 166.2 s and the Time (Mus musculus [9]) was 4.9 min. For the same compound, the Time (Mus musculus [10]) was 3.2 min, the Time (Mus musculus [11]) was 1.9 min and the Time (Mus musculus [12]) was 0.7 min. It also gave a Time (Mus musculus [13]) of 0.1 min, a Time (Mus musculus [14]) of 15.3 s and a Time (Mus musculus [15]) of 86.1 s. It also gave a Time (Mus musculus [16]) of 70.8 s.
With `CCOC(=O)c1ncn2c1c(C)c(C(=O)NCCOCCOCCNC(=O)c1c(C)c3c(C(=O)OCC)ncn3c3ccccc13)c1ccccc12` the Ki [17] was 18 nM, the Ki [3] was 129 nM and the Ki [4] was 100 nM.
For `CCOC(=O)c1ncn2c1c(C)c(C(=O)NCCOCCOCCOCCOCCOCCOCCOCCNC(=O)OC(C)(C)C)c1ccccc12`, the Ki [17] was 0.66 nM, the Ki [3] was 42 nM and the Ki [4] was 63 nM.
In the case of `CCOC(=O)c1ncn2c1c(C)c(C(=O)NCCCCCCCNC(=O)c1c(C)c3c(C(=O)OCC)ncn3c3ccccc13)c1ccccc12`, the Ki [1] is reported as 12 nM, the Ki [2] is reported as 0.001 nM and the Ki [3] is reported as 74 nM. For the same compound, the Ki [4] was 74 nM.
`CCOC(=O)c1ncn2c1c(C)c(C(=O)NCCCCCCCCNC(=O)OC(C)(C)C)c1ccccc12` gave a Ki [1] of 51 nM, a Ki [2] of 0.005 nM and a Ki [3] of 39 nM. The Ki [4] was 42 nM.
Work on `CCOC(=O)c1ncn2c1c(C)c(C(=O)NCCOCCOCCOCCOCCOCCOCCOCCNC(=O)c1c(C)c3c(C(=O)OCC)ncn3c3ccccc13)c1ccccc12` yielded a Ki [17] of 41 nM, a Ki [3] of 245 nM and a Ki [4] of 210 nM.
`CCOC(=O)c1ncn2c1c(C)c(C(=O)NCCOCCOCCNC(=O)OC(C)(C)C)c1ccccc12` gave a Ki [17] of 12 nM, a Ki [3] of 615 nM and a Ki [4] of 400 nM.
With `CN1C(=O)CN=C(c2ccccc2)c2cc(Cl)ccc21` [DIAZEPAM] the Ki [1] was 3.5 nM, the Time (Mus musculus [18]) was 174.9 s and the Time (Mus musculus [19]) was 17.4 s. The Time (Mus musculus [20]) was 61 s and the Time (Mus musculus [21]) was 43.6 s.
`CCOC(=O)c1ncn2c1CN(C)C(=O)c1cc(F)ccc1-2` [FLUMAZENIL] showed a Ki [1] of 1.3 nM.
